# Measurements published in patent publication US12643887B2, “Heterocyclic derivatives with cardiomyocyte proliferation activity for treatment of heart diseases” (Tongji University, priority 2019, dated 2026).
# Tests used:
# [1] = target: T1, human CLK1 (Homo sapiens, UniProt P49759); test: CLK1 enzyme assay (ADP-Glo); assay type: biochemical; settings: ADP-Glo, ATP 10 μM; read-out: CLK1 IC50
# T1 construct: Recombinant human CLK1 (129-end); GST (N); purchased SignalChem C57-11G; host or cells: Sf9 insect cells
# How it was run: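 GST-tagged CLK1 (129-end, Sf9-expressed) at 16 nM was preincubated with compound 30 min at 25 °C in 40 mM Tris pH 7.5, 20 mM MgCl2, 0.1 mg/ml BSA, 50 μM DTT. Reaction with 2 μM substrate and 10 μM ATP ran 60 min at 25 °C. ADP-Glo luminescence gave IC50 by four-parameter fit.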
# [2] = target: T2, human HIPK1 (Homo sapiens, UniProt Q86Z02); test: HIPK1 enzyme assay (ADP-Glo); assay type: biochemical; settings: ADP-Glo, ATP 5 μM; read-out: HIPK1 IC50
# T2 construct: Recombinant human HIPK1 (156-555); GST (N); purchased SignalChem H03-11G; host or cells: Sf9 insect cells
# How it was run: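 Recombinant GST-tagged HIPK1 (156-555, Sf9), 4 nM, preincubated 30 min at 25° C with compound in Tris pH 7.5/MgCl2/BSA/DTT, then reacted 90 min with 0.05 mg/ml MBP and 5 μM ATP. ADP formed read by ADP-Glo luminescence; IC50 from four-parameter logistic fit of % inhibition versus Max/Min controls.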
# T2 sequence (Q86Z02 156-555): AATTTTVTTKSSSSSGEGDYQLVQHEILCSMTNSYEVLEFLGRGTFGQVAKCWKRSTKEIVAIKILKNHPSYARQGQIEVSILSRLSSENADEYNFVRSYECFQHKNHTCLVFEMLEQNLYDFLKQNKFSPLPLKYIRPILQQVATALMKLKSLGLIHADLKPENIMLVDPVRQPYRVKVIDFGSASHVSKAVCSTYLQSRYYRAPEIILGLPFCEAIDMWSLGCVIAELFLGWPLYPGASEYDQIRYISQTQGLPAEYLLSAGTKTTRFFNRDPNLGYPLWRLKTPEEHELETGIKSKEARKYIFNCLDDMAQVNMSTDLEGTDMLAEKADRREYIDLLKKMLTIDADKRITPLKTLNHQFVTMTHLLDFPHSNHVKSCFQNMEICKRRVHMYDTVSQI
# T1 sequence (P49759 129-484 limits assumed): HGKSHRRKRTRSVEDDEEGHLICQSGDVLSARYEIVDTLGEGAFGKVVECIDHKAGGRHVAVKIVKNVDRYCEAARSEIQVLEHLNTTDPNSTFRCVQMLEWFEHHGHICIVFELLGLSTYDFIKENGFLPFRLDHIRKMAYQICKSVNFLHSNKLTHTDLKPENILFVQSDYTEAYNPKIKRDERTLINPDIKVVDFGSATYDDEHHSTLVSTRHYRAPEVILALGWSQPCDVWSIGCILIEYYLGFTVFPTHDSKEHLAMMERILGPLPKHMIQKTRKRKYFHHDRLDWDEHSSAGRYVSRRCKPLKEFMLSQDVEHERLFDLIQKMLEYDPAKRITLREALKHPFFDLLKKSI
SMILES,IC50 [1],IC50 [2]
"O=C1NC(Nc2ccc3[nH]ccc3c2)=N/C1=C\c1ccc2ncsc2c1 [Example 69, (Z)-2-((1H-indol-5-yl)amino)-5-(benzo[d]thiazol-6-ylmethylene)-3,5-dihydro-4H-imidazol-4-one]",< 0.1 µM,0.1 to 1 µM
"CN(CC1CC1)C1=N/C(=C\c2ccc3ncsc3c2)C(=O)N1 [Example 33, (Z)-5-(benzo[d]thiazol-6-ylmethylene)-2-((cyclopropylmethyl)(methyl)amino)-3,5-dihydro-4H-imidazol-4-one]",0.1 to 1 µM,> 10 µM
"CC(C)NC1=N/C(=C\c2ccc3scnc3c2)C(=O)N1 [Example 49, (Z)-5-(benzo[d]thiazol-5-ylmethylene)-2-(isopropylamino)-3,5-dihydro-4H-imidazol-4-one]",> 10 µM,> 10 µM
"CN(C1=N/C(=C\c2ccc3c(c2)OCCO3)C(=O)N1)c1ccc2ncsc2c1 [Example 84, (Z)-2-(benzo[d]thiazol-6-yl(methyl)amino)-5-((2,3-dihydrobenzo[b][1,4]dioxin-6-yl)methylene)-3,5-dihydro-4H-imidazol-4-one]",0.1 to 1 µM,> 10 µM
"CN(C1=N/C(=C\c2ccc3[nH]cnc3c2)C(=O)N1)c1ccccc1 [Example 30, (Z)-5-((1H-benzo[d]imidazol-5-yl)methylene)-2-(methyl(phenyl)amino)-3,5-dihydro-4H-imidazol-4-one]",0.1 to 1 µM,> 10 µM
"O=C1NC(Nc2ccccc2)=N/C1=C\c1cncs1 [Example 15, (Z)-2-(phenylamino)-5-(thiazol-5-ylmethylene)-3,5-dihydro-4H-imidazol-4-one]",> 10 µM,> 10 µM
"O=C1NC(N(CC2CC2)c2ccc3ncsc3c2)=N/C1=C\c1ccc2ncsc2c1 [Example 105, (Z)-2-(benzo[d]thiazol-6-yl(cyclopropylmethyl)amino)-5-(benzo[d]thiazol-6-ylmethylene)-3,5-dihydro-4H-imidazol-4-one]",> 10 µM,> 10 µM
"Cn1cnc2cc(NC3=N/C(=C\c4ccc5ncsc5c4)C(=O)N3)ccc21 [Example 61, (Z)-5-(benzo[d]thiazol-6-ylmethylene)-2-((1-methyl-1H-benzo[d]imidazol-5-yl)amino)-3,5-dihydro-4H-imidazol-4-one]",0.1 to 1 µM,0.1 to 1 µM
"Cn1ncc2cc(/C=C3\N=C(Nc4ccccc4)NC3=O)ccc21 [Example 77, (Z)-5-((1-methyl-1H-indazol-5-yl)methylene)-2-(phenylamino)-3,5-dihydro-4H-imidazol-4-one]",0.1 to 1 µM,> 10 µM
"CN(C1=N/C(=C\c2ccc3ncsc3c2)C(=O)N1)c1ccc(N)cc1 [Example 44, (Z)-2-((4-aminophenyl)(methyl)amino)-5-(benzo[d]thiazol-6-ylmethylene)-3,5-dihydro-4H-imidazol-4-one]",0.1 to 1 µM,1 to 10 µM
"O=C(O)CCN(C1=N/C(=C\c2ccc3c(c2)OCO3)C(=O)N1)c1ccccc1 [Example 27, (Z)-3-((4-(benzo[d][1,3]dioxol-5-ylmethylene)-5-oxo-4,5-dihydro-1H-imidazol-2-yl)(phenyl)amino)propanoic acid]",1 to 10 µM,1 to 10 µM
"O=C1NC(Nc2ccccc2)=N/C1=C\c1ccc(=O)[nH]c1 [Example 9, (Z)-5-((5-oxo-2-(phenylamino)-1,5-dihydro-4H-imidazol-4-ylidene)methyl)pyridin-2(1H)-one]",0.1 to 1 µM,> 10 µM
"CN(C1=N/C(=C\c2ccc3ncsc3c2)C(=O)N1)c1ccccc1 [Example 7, (Z)-5-(benzo[d]thiazol-6-ylmethylene)-2-(methyl(phenyl)amino)-3,5-dihydro-4H-imidazol-4-one]",0.1 to 1 µM,1 to 10 µM
"O=C1NC(Nc2ccccc2)=N/C1=C\c1ccc2cn[nH]c2c1 [Example 54, (Z)-5-((1H-indazol-6-yl)methylene)-2-(phenylamino)-3,5-dihydro-4H-imidazol-4-one]",> 10 µM,> 10 µM
"O=C1NC(N(Cc2ccccc2)c2ccccc2)=N/C1=C\c1ccc2ncsc2c1 [Example 41, (Z)-5-(benzo[d]thiazol-6-ylmethylene)-2-(benzyl(phenyl)amino)-3,5-dihydro-4H-imidazol-4-one]",< 0.1 µM,> 10 µM
"O=C1NC(Nc2ccccc2)=N/C1=C\c1ccc2nccnc2c1 [Example 16, (Z)-2-(phenylamino)-5-(quinoxalin-6-ylmethylene)-3,5-dihydro-4H-imidazol-4-one]",< 0.1 µM,1 to 10 µM
"O=C1NC(N(Cc2ccccc2)c2ccccc2)=N/C1=C\c1ccc2[nH]cnc2c1 [Example 35, (Z)-5-((1H-benzo[d]imidazol-5-yl)methylene)-2-(benzyl(phenyl)amino)-3,5-dihydro-4H-imidazol-4-one]",0.1 to 1 µM,> 10 µM
"CN(C1=N/C(=C\c2ccc3c(c2)OCO3)C(=O)N1)c1ccc(N)cc1 [Example 37, (Z)-2-((4-aminophenyl)(methyl)amino)-5-(benzo[d][1,3]dioxol-5-ylmethylene)-3,5-dihydro-4H-imidazol-4-one]",1 to 10 µM,> 10 µM
"CN(C1=N/C(=C\c2ccc3c(c2)OCCO3)C(=O)N1)c1ccccc1 [Example 8, (Z)-5-((2,3-dihydrobenzo[b][1,4]dioxin-6-yl)methylene)-2-(methyl(phenyl)amino)-3,5-dihydro-4H-imidazol-4-one]",1 to 10 µM,> 10 µM
